Results published in US20230257373A1, “QUORUM SENSING INHIBITORS AND METHODS OF USE” (priority 2020, published 2023).
Where “and” joins values, the source holds several entries; their conditions need not be identical. Equal values may be shown once. Read-outs that look alike come from different tables or passages of the source.

How the values were obtained:
V. campbellii LuxR [1] = target: T1, V. campbellii LuxR (Vibrio harveyi, UniProt P21308); assay: E. coli dual-color bioassay (pKM699 LuxR, pJV064 reporter); format: cell-based; conditions: for Inhibition of LuxR in the E. coli bioassay (in words): GFP and mCherry reporters
T1 construct: expressed in transfected cells; host or cells: E. coli DH10B with pKM699 and reporter pJV064
T1 sequence (P21308 whole entry): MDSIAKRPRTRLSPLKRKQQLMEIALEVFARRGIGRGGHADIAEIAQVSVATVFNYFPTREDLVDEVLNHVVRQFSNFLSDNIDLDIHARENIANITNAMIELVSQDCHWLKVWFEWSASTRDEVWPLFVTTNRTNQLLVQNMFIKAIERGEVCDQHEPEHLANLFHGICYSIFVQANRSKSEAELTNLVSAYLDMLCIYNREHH
Source text: Previously, we developed a bioassay that consists of a dual-color fluorescent reporter plasmid that reports both LuxR activities: the luxCDABE promoter is activated by LuxR and drives expression of gfp, and the VIBHAR_05222 promoter is repressed by LuxR and drives expression of mCherry (van Kessel et al., 2013b) (FIG. 2A). We used this reporter plasmid in an E. coli strain that also contains a plasmid expressing LuxR from its native promoter.
A bioassay was developed to monitor LuxR function that consists of a dual-color reporter plasmid (pJV064) that reports both activities: the luxCDABE promoter is activated by LuxR and drives expression of gfp, and the 05222 promoter is repressed by LuxR and drives expression of mCherry (van Kessel, Ulrich et al. 2013). This reporter plasmid was used in an E. coli strain that also contains a plasmid (pKM699) expressing LuxR from its native promoter. E. coli cultures containing these two plasmids were grown at 30° C. in LB medium with chloramphenicol (10 μg/ml) and tetracycline (10 μg/ml) to select for the two plasmids. Compounds were added to the cultures at a range of concentrations, and the cultures were incubated for 16 hours shaking at 30° C.
The dual-promoter fluorescence reporter assays were performed using E. coli strain DH10B containing two plasmids: 1) plasmid pJV064 containing the PluxC fused to GFP and P05222fused to mCherry to assess LuxR transcriptional regulation, and 2) plasmid pKM699 expressing V. campbellii luxR under control of its native promoter or empty vector pLAFR2.

[2] = tested on: PluxC-gfp reporter in V. vulnificus; assay: PluxC-gfp reporter in V. vulnificus strains; conditions: Vibrio vulnificus
[3] = tested on: PluxC-gfp reporter in V. parahaemolyticus; assay: PluxC-gfp reporter in V. parahaemolyticus strains; conditions: Vibrio parahaemolyticus
[4] = tested on: PluxC-gfp reporter in V. coralliilyticus; assay: PluxC-gfp reporter in V. coralliilyticus strains
[5] = tested on: PluxC-gfp reporter in V. campbellii; assay: PluxC-gfp reporter in V. campbellii strains; conditions: Vibrio campbellii
[6] = tested on: V. campbellii, V. parahaemolyticus, and V. vulnificus; conditions: cited from earlier work
SmcR [7] = target: T2, SmcR (Vibrio vulnificus, UniProt Q9L8G8); conditions: Kim et al., 2018; cited from earlier work
T2 sequence (Q9L8G8 entry or part of it): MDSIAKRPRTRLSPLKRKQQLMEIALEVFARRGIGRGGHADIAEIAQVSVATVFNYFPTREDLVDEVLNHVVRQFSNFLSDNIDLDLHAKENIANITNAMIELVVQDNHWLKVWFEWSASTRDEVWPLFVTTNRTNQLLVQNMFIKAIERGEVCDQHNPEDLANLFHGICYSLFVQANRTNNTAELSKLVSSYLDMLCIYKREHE

SmcR regulon = conditions: cited from earlier work
SmcR [8] = target: T2, SmcR; assay: ITC analysis of SmcR interaction with inhibitors; format: binding, V. vulnificus
Source text: To test the validity of the modelling predictions for PTSP, we performed isothermal titration calorimetry (ITC) to determine the binding affinity of SmcR and LuxR for PTSP. […] We noted that PTSP binding to both LuxR and SmcR had lower entropy and enthalpy compared to SmcR binding to Qstatin. […] Thus, we conclude that the efficacy of PTSP inhibition in vivo in these two Vibrio species correlates to the binding affinity determined in vitro for these two proteins.
SmcR and LuxR were purified as described previously. EMSAs were conducted as described previously using oligonucleotides corresponding to the luxC and vvpE promoter sequences. ITC analysis was conducted using purified LuxR or His-tagged SmcR, each in gel-filtration buffer (25 mM Tris pH 7.5, 300 mM NaCl, 0.5 mM EDTA, 1 mM DTT, 2% DMSO). All molecules analyzed were diluted in the same buffer. The samples were degassed for 10 min by vacuum aspiration. Titrations were performed on a Nano-ITC (TA Instruments). […] Thermograms were analyzed using NanoAnalyze software with the independent binding model.

V. campbellii = assay: Growth of V. campbellii with inhibitor; format: cell-based; conditions: high concentrations
Source text: (§1) Many sulfonamide-containing compounds are known to target the folate synthesis pathway in bacteria and inhibit growth (bacteriostatic), and thus these “sulfa drugs” have been used as broad-spectrum antibiotics for decades (Hammoudeh et al., 2013, Roland et al., 1979). […] We also tested the stability of the inhibitors in bacterial cultures and the timing of the inhibitory effect.

V. campbellii LuxR [9] = target: T1, V. campbellii LuxR; assay: qRT-PCR and western blots in wild-type V. campbellii; format: cell-based
Source text: The Qstatin-treated regulon overlapped with the SmcR regulon by more than 50%, with similar gene expression fold-changes. […] This is important to note because LuxR and HapR proteins are known to autorepress their own expression. To test the effects of adding inhibitors to V. campbellii LuxR, we added 10A, 10B, and 10C to wild-type V. campbellii and used qRT-PCR and western blots to examine the effects on luxR transcript and protein levels. We also examined the transcript levels for luxC and 05222 genes that are directly activated or repressed by LuxR, respectively.
All PCR reactions were performed using Phusion HF polymerase (NEB). T4 polynucleotide kinase (T4 PNK) used in EMSAs and all other enzymes were purchased from NEB and used according to manufacturer's instructions. Site-directed mutagenesis for construction of plasmids expressing mutant proteins was carried out using the Agilent QuikChange II XL Site-Directed Mutagenesis Kit. All oligonucleotides were purchased from Integrated DNA Technologies (IDT).ALL plasmid constructs were confirmed by DNA sequencing (Eurofins). Cloning details for plasmids are available upon request. Western blot analysis was performed as previously described (van Kessel et al., 2013b), except that new anti-LuxR antibodies were generated through Cocalico against purified LuxR protein. In addition, the western blots were probed with anti-RpoB (Neoclone).
Then cells were induced with 50 μM IPTG and grown under the same conditions until cells reached an OD600 of approximately 1, at which 5 mL of cells were collected by centrifugation and frozen in liquid N2. RNA was extracted using a Trizol/chloroform extraction protocol previously described (Rutherford et al., 2011). Quantitative real-time PCR (qRT-PCR) was performed as previously described (Chaparian et al., 2016). Samples were normalized to the internal standard hfq gene. The ΔΔCT values were used to analyze data from three independent biological replicates. Symbols on graphs represent the mean values and error bars represent the standard deviations. All statistical analysis was performed with functions from GraphPad Prism version 8.

Vibrio strains = assay: luxCDABE reporter across five Vibrio species; conditions: each Vibrio strain except V. cholerae
V. vulnificus = assay: Growth of V. vulnificus with inhibitor; format: cell-based; conditions: high concentrations
Source text: as §1

[10] = read-out: IC50 in the bioassay (approximate)
[11] = ATCC27562, read-out: Inhibition (IC50) of the PluxC-gfp reporter, Vvul ATCC 27562
[12] = read-out: Inhibition (IC50) of the PluxC-gfp reporter, Vvul CMPC6
[13] = read-out: Inhibition (IC50) of the PluxC-gfp reporter, Vvul YJ016
[14] = read-out: Inhibition (IC50) of the PluxC-gfp reporter, Vpara 12-297/B
[15] = read-out: Inhibition (IC50) of the PluxC-gfp reporter, Vpara D4
[16] = read-out: Inhibition (IC50) of the PluxC-gfp reporter, Vpara RIMD 2210633
[17] = read-out: Inhibition (IC50) of the PluxC-gfp reporter, Vcoral OCN 008
[18] = read-out: Inhibition (IC50) of the PluxC-gfp reporter, Vcoral OCN 014
[19] = ATCC25920, read-out: Inhibition (IC50) of the PluxC-gfp reporter, Vcamp ATCC 25920
[20] = read-out: Inhibition (IC50) of the PluxC-gfp reporter, Vcamp BB120
[21] = read-out: Inhibition (IC50) of the PluxC-gfp reporter, Vcamp HY01

With O=S(=O)(c1ccc(Br)s1)n1cccn1 [Qstatin, 1-((5-bromothiophen-2-yl)sulfonyl)-1H-pyrazole, reference compound] the “Inhibition of LuxR in the E. coli bioassay (in words)” value (V. campbellii LuxR [1]) was “inhibited LuxR activity”, the IC50 (V. campbellii LuxR [1]; Table 2, titration, 16 hours, read-out: Inhibition (IC50) of GFP production by LuxR in E. coli bioassay) was 5000 nM and the IC50 (V. campbellii LuxR [1]; [10]) was 5000 to 10000 nM and 10000 to 20000 nM. The IC50 ([2]; ATCC27562, read-out: IC50, V. vulnificus ATCC 27562, luxCDABE reporter plasmid) was 400 nM, the IC50 [2, 11] was 500 nM and the IC50 [2, 12] was 2100 nM. The IC50 [2, 13] was 900 nM, the IC50 ([3]; read-out: IC50, V. parahaemolyticus RIMD2210633, luxCDABE reporter plasmid) was 2800 nM and the IC50 [3, 14] was 1700 nM. It also gave an IC50 [3, 15] of 3000 nM, an IC50 [3, 16] of 2300 nM and an IC50 ([4]; read-out: IC50, V. coralliilyticus OCN008, luxCDABE reporter plasmid) of 3600 nM. The IC50 [4, 17] was 11600 nM, the IC50 [4, 18] was 22200 nM and the IC50 [5, 19] was 800 nM. For the same compound, the IC50 ([5]; read-out: IC50, V. campbellii BB120, luxCDABE) was 1300 nM, the IC50 [5, 20] was 4000 nM and the IC50 [5, 21] was 1200 nM. The “Inhibition of pathogenesis in shrimp infection assay” value [6] was “inhibits pathogenesis”, the “Effect on SmcR DNA binding affinity” value (SmcR [7]) was “very little effect” and the “Off-target effects in the ΔsmcR strain” value (SmcR regulon; RNA-seq, ΔsmcR strain) was “no significant off-target effects”. The “Overlap of Qstatin-treated regulon with the SmcR regulon” value (SmcR regulon; RNA-seq) was “more than 50%”, the “Increase of smcR transcript levels” value (SmcR regulon; wild-type V. vulnificus) was 2.5 fold and the Ka (SmcR [8]) was 1.36e+06 M⁻¹. For the same compound, the ΔG (SmcR [8]) was -8.37 kcal/mol and -8.365 kcal/mol, the ΔH (SmcR [8]) was -19.58 kcal/mol and the ΔS (SmcR [8]) was −157.30 J/mol · K. The “−TΔS” value (SmcR [8]) was 11.21 kcal/mol and the Kd (SmcR [8]; 25° C., read-out: Kd) was 738 nM.

With O=S(=O)(c1ccc(Cl)s1)n1ccc(-c2ccccc2)n1 [Compound 10C, 1-((5-chlorothiophen-2-yl)sulfonyl)-3-phenyl-1H-pyrazole] the “Growth rate or growth yield” value (V. campbellii) was “did not alter growth rate or growth yield”, the “Inhibition of LuxR in the E. coli bioassay (in words)” value (V. campbellii LuxR [1]) was “most potent” and the IC50 (V. campbellii LuxR [1]; [10]) was 1000 to 2000 nM. The IC50 [2, 11] was 0.75 nM, the IC50 [2, 12] was 60.5 nM and the IC50 [2, 13] was 5.46 nM. For the same compound, the IC50 [3, 14] was 1040 nM, the IC50 [3, 15] was 1280 nM and the IC50 [3, 16] was 680 nM. For the same compound, the IC50 [4, 17] was 1070 nM, the IC50 [4, 18] was 2420 nM and the IC50 [5, 19] was 90 nM. The IC50 [5, 20] was 710 nM, the IC50 [5, 21] was 160 nM and the luxC transcripts (V. campbellii LuxR [9]; qRT-PCR, to levels in a ΔluxR strain) was “significantly decreased”. For the same compound, the 05222 transcripts (V. campbellii LuxR [9]; qRT-PCR, wild-type cultures) was “significantly increased”, the LuxR protein level (V. campbellii LuxR [9]; western blot, wild-type V. campbellii) was “visible increase” and the “IC50 values lower than Qstatin” value (Vibrio strains) was roughly 10 fold. The “Growth rate or growth yield” value (V. vulnificus) was “did not alter growth rate or growth yield”.
